We go through 3 substances from paper PMC11904221 (EMBO Molecular Medicine, 2025).

Experiment [1] deals with retinal vasculature. Kind of experiment: Retina angiogenesis assay. The format is in vivo, mouse. Further details: unit not given here. As to conditions: P5 mice, isolectin B4, individual values; control 74-89. The text has this: (§1) Red arrows indicate the direction of vessel formation. […] All data are representative of three independent experiments. […] The two Furin cleavage sites are shown. […] (S–U) Plasmon waveguide resonance (PWR). […] Source data are available online for this figure.
(§2) Angiogenesis is a complex intercellular process involving the organization of various cells.
Following the treatment period, the mice were humanely euthanized, and their eyes were harvested. […] The retinas were carefully isolated and fixed in 4% PFA for 2 h at room temperature or overnight at 4 °C. After fixation, the retinas were blocked and permeabilized in a solution containing 1% bovine serum albumin (BSA) and 0.5% Triton X-100 overnight at 4 °C. Subsequently, the retinas were washed three times with a buffer solution composed of 0.5% Triton X-100, 1 mM CaCl2, 1 mM MgCl2, and 1 mM MnCl2 in PBS, pH 6.8. The retinas were then incubated with FITC-labeled Isolectin B4 (1:1000; Vector Laboratories) to label blood vessels. Following staining, the retinas were embedded in Tissue-Tek OCT Compound, and 10-μm cryosections were cut. Confocal immunofluorescence images were acquired with an inverted Nikon C2si Eclipse Ti-S microscope and analyzed using NIS-ElementsAR software (Nikon Instruments Europe B.V.).

Experiment [2] deals with CT-26 cells on CAM. Kind of experiment: CAM implanted with CT-26 cells, tumor and vascularized area. The format is in vivo, chick. As to conditions: individual values. The source says:
(§3) Tumor growth, apoptosis, proliferation, and/or the angiogenic index of the developed tumors were first evaluated.
(§4) (A) Scheme and workflow of apelin-dm preclinic studies. […] (B–D) Error bars indicate s.e.m. center values indicate mean (Mann–Whitney U test). […] The percentage of relative staining intensity corresponding to CD31, Ki67, and BIM expression in CT-26 and MC-38 tumors of treated mice are shown in (I–N). Scale bar, 100 µm. Data represent mean ± s.e.m. of 3–4 independent experiments. P values were calculated with the Student t test in GraphPad. […] Quantification of tumor area (P) and vascularized area (Q) relative to control untreated CAMs (n = 3 CAM per group) assigned 100%. Data represent mean ± s.e.m. P values were calculated with the Student t test in GraphPad. […] (S, T) The average blood flow expressed in % relative to blood flow measured in […] (S) and MDA-MB231 (T) developed tumors. Data represent mean ± s.e.m. of 3–4 independent experiments. P values were calculated with the Student t test in GraphPad. Source data are available online for this figure.
Fertilized eggs were allowed to mature ex ovo. […] Immunohistology in toto was performed for vessel staining.

Experiment [3] deals with CT-26 and MC-38 tumors. Description: Subcutaneous tumor growth of cells stably expressing APLN or APLN-DM. The format is in vivo, mouse.
In experiment [4] the test system is chick chorioallantoic membrane. Description: Chick chorioallantoic membrane (CAM) angiogenesis assay. As to conditions: 48 h, 100 nM each, individual CAM, n = 8; control 99-131.
The subject of experiment [5] is CT-26 and MC-38 cells. Description: Soft agar, proliferation and apoptosis of cells expressing APLN or APLN-DM. As to conditions: cancer cells expressing the construct.
The subject of experiment [6] is aortic ring microvessel sprouting. Kind of experiment: Aortic ring assay. Further details: species or system mouse. As to conditions: 100 nM, VEGF 30 ng/ml.
Text: as §2

Experiment [7] concerns HCT116 tumors. Kind of experiment: Tumor blood flow, laser Doppler, HCT116 tumors. The format is in vivo, mouse. As to conditions: Bevacizumab 5 (mg/Kg), individual values.
Text: as §3, §4
(§5) Additional experiments involved injecting 1 × 10^6 control CT-26/MC-38/MDA-MB231 cells into BALB/c, C57BL/6, or nude mice, respectively. […] LASER Doppler imaging assessed total blood flow, with FlowR® Hemodynamics visualization used for analysis. Results were expressed as % relative to pre-treatment tumor blood flow.

For experiment [8], the system named is MDA-MB-231 tumors. Description: Tumor blood flow, laser Doppler, MDA-MB-231 tumors. The format is in vivo, mouse. As to conditions: Bevacizumab 5 (mg/Kg), individual values.
Text: as §3, §4, §5

The conditions of experiment [9]: in vitro and in CAM assays; ref Ljoki et al, 2022; Ademi et al, 2021; cited from earlier work.
Experiment [10] has as its system HUVEC. Description: Tube-like formation assay. To be noted: read-out: EC50 (reduction of 50% of junction number); HUVEC on Geltrex, 18h treatment, 5 nM to 5 μM, GraphPad Prism.
In experiment [11] the test system is HUVEC. Description: HUVEC proliferation with VEGF, IncuCyte confluence. It is filed as cell-based, human.
Text: as §1

In experiment [12] the test system is HUVEC. Kind of experiment: VEGF-induced migration of HUVECs. The format is cell-based, human. To be noted: VEGF 30 ng/ml, apelin-dm 100 nM, individual values; control column 95-118.
The subject of experiment [13] is ERK. As to conditions: VEGF 30ng/mL, apelin-dm 100 nM, individual values n = 3.

Several values for one entry are separate records, joined by “and”; a condition that tells them apart may be missing. Equal values may be shown once.

A word on the EC50: it is the concentration at which the effect is half-maximal.

For “APLN: wild-type APLN stably expressed in CT-26 or MC-38 cells by lentiviral vector (QRPRLSHKGPMPF)”, the retina vascularization in [1] is 84.9099 and 86.8403 and 90.0489 and 88.5208 and 85.3624 and 89.8292 and 92.0113 and 89.1254 and 85.4258 and 94.4967 and 90.4185 and 89.0824 and 95.2514 and 99.1254 and 85.2991 and 91.6992 and 83.1786 and 91.7618 and 93.6101. In addition, in [2] (same data as sheet 5N), the “CAM CT-26 quantification (Fig5P file)” value is 168 and 189 and 190. Further, in experiment [2] (tumor or vascularized area not given), the “CAM CT-26 quantification (sheet 5N)” value was 168 and 189 and 190. Moreover, the tumor volume is reported as 180.48 in [3] (expressing cells, Rag2/γc, day 8, control 60.45, in mm³ (unit assumed)); 571 in experiment [3] (expressing cells, Rag2/γc, day 11, control 142, in mm³ (unit assumed)); 974.2 in [3] (expressing cells, Rag2/γc, day 13, control 583.25, in mm³ (unit assumed)); 1295.1 in [3] (expressing cells, Rag2/γc, day 15, control 887.52, in mm³ (unit assumed)); 2221 in [3] (expressing cells, Rag2/γc, day 18, control 1263.6, in mm³ (unit assumed)); 2868 in experiment [3] (expressing cells, Rag2/γc, day 20, control 2040.04, in mm³ (unit assumed)). Besides, in experiment [3] (tumor cells stably expressing the construct, Rag2/γc mice (Fig 2C), day 7, control 38.75), the tumor volume was determined as 39.12. Besides, in experiment [4], the CAM vessel density is 120 and 252 and 210 and 201 and 189 and 155 and 145 and 136. In experiment [5], the anchorage-independent growth entry is on record as “twofold increased”.
Consider Bevacizumab, for which the “VEGF-induced aortic ring sprouting” value in experiment [6] is “apelin-dm was comparable in effect to Bevacizumab”. The “tumor blood flow, % relative” value is 86 and 65 and 70 and 63 and 59 in [7]; 82 and 75 and 69 and 51 in [8]. Also, the “concentration with inhibitory effects” value in experiment [9] was “around 100 nM”. The EC50 in experiment [10] is 83 nM and 130 nM.
As to VEGF, the HUVEC confluence in [11] (0 h, VEGF 30 ng/ml or apelin-dm 100 nM, means, n = 6 wells) turned out to be 10; in experiment [11] (24 h), 19; in experiment [11] (48 h), 33; in experiment [11] (72 h) it was 55; in experiment [11] (96 h), 75; in [11] (120 h) it was 82. Besides, the HUVEC migration in experiment [12] is 160 and 250 and 188 and 208 and 299 and 320 and 199. Moreover, the “ERK phosphorylation relative to control untreated HUVEC assigned 100%” value in [13] was 144.293 and 157.045 and 122.733.
